According to patent US12162888B2, “Carboxamides as ubiquitin-specific protease inhibitors” (Valo Early Discovery, Inc., priority 2018, dated 2024):
Like-named read-outs stand apart in the source and are kept apart here.

Target: T1, USP28 (His-tagged USP28-FL-mammalian) (Homo sapiens, UniProt Q96RU2)
T1 construct: Expression of USP28 (1-1077)-TEV-6*His (pTT5 vector) was carried out in Expi293f cells; made in house; host or cells: Expi293F cells (pTT5 vector)
T1 sequence (Q96RU2 1-1077): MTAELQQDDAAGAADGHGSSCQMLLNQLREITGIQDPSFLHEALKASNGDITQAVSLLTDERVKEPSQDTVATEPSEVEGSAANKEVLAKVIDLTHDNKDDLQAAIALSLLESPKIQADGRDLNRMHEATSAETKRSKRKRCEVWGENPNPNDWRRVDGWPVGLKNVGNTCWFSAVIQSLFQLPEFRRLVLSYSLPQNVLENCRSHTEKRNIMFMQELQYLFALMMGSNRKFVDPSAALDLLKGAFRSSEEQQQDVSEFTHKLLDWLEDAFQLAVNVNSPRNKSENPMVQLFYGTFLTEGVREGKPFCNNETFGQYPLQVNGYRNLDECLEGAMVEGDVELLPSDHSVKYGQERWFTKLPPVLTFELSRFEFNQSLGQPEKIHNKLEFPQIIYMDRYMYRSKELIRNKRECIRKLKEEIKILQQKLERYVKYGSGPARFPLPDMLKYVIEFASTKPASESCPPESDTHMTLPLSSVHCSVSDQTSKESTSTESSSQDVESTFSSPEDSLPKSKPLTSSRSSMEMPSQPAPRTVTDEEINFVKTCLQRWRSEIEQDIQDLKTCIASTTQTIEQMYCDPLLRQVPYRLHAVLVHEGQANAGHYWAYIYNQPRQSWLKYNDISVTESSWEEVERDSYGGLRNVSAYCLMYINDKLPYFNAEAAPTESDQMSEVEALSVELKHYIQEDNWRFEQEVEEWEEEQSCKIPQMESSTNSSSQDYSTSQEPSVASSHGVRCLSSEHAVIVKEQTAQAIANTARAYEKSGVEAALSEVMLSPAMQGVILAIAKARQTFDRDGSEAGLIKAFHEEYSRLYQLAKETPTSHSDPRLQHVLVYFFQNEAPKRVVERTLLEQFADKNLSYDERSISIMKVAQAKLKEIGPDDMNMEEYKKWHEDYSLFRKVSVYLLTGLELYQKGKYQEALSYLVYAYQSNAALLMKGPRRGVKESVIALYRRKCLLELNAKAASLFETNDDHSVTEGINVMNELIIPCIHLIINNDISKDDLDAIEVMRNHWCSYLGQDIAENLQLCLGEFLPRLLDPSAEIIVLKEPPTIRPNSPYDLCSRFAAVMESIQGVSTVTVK
Experiment: Ubiquitin-Rhodamine 110 Assay for USP28 Activity, Example A-1(a)
Assay type: biochemical
Settings: Ubiquitin-Rhodamine 110 assay
Summary of the method: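 Full-length His-tagged human USP28 (1-1077), expressed in Expi293F cells, was used at […] with 25 nM Ub-Rh110 (<<Km) in 20 mM Tris pH 8.0, 3 mM BME, 0.03% BGG and 0.01% Triton X-100. Compounds (25 μM-1.3 nM, 10-point) were preincubated with enzyme for 30 min, and the reaction ran 45 min at room temperature before a citric acid stop. Fluorescence was read at 485/535 nm, and IC50 came from 4-parameter fits of percent inhibition.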

[1] = biochemical IC50 range, read-out: USP28 A-1(a)
[2] = read-out: USP28 A-1(a) IC50 range

Compound | IC50 [2] [µM] | also measured
Cc1ccc2c(N)c(C(=O)N[C@H]3COc4cc(N5C[C@H](N)[C@]6(CCOC6)C5)ccc4C3)sc2n1 [Example 656, 3-amino-N-[(3R)-7-[(5S,9R)-9-amino-2-oxa-7-azaspiro[4.4]nonan-7-yl]-3,4-dihydro-2H-1-benzopyran-3-yl]-6-methylthieno[2,3-b]pyridine-2-carboxamide] |  | IC50 [1]: 0.001 to 0.05 µM
Cc1ccc2c(N)c(C(=O)N[C@H]3CCc4c(C#N)c(N5CC6CCC(C5)N6)cc(F)c4C3)sc2n1 (single isomer, unassigned) [Example 14-17] | 0.001 to 0.05 | 
Cc1ccc2c(N)c(C(=O)N[C@H]3CCc4c(C#N)c(N5CC6CNCC(C5)O6)cc(F)c4C3)sc2n1 (single isomer, unassigned) [Example 14-15] | 0.001 to 0.05 | 
CO[C@H]1CN(c2ccc3c(c2)OC[C@H](NC(=O)c2sc4nc(C)cnc4c2N)C3)C[C@@H]1N [Example 117] | 0.001 to 0.05 | 
Cc1cnc2c(N)c(C(=O)N[C@@H]3CCc4c(ccc(N5CCNCC5)c4F)C3)sc2n1 (single isomer, unassigned) [Example 21-9] | 0.05 to 0.2 | 
CN[C@@H]1CN(c2ccc3c(c2)OC[C@H](NC(=O)c2sc4nc(C)ccc4c2N)C3)C[C@H]1CF [Example 663, 3-amino-N-[(3R)-7-[(3R,4S)-3-(fluoromethyl)-4-(methylamino)pyrrolidin-1-yl]-3,4-dihydro-2H-1-benzopyran-3-yl]-6-methylthieno[2,3-b]pyridine-2-carboxamide] |  | IC50 [1]: 0.001 to 0.05 µM
CCn1ccc2cc(C(=O)N[C@H]3CCc4nc(N5C[C@H](COC)[C@H](N)C5)ccc4C3)cnc21 (single isomer, unassigned) [Example 401] | 0.2 to 2 | 
N#Cc1c(N2CC3CCC(C2)N3)cc(F)c2c1OC[C@H](NC(=O)c1cnc3c(c1)[C@@H]1CC1CN3)C2 (stereo partly drawn) [Example 228, (6aS,7aR)-N-[(3R)-8-cyano-7-(3,8-diazabicyclo[3.2.1]octan-3-yl}-5-fluoro-3,4-dihydro-2H-1-benzopyran-3-yl]-5H,6H,6aH,7H,7aH-cyclopropa[c]1,8-naphthyridine-2-carboxamide] |  | IC50 (IC50 ranges, read-out: USP28 A-1(a) IC50): 0.2 to 2 µM
COC1CN(c2ccc3c(c2)CC[C@H](NC(=O)c2sc4nc(C)cnc4c2N)C3)CC1N (stereo in doubt) [Example 130, 7-amino-N-[(2S)-6-[(3S,4S)-3-amino-4-methoxypyrrolidin-1-yl]-1,2,3,4-tetrahydronaphthalen-2-yl]-3-methylthieno[2,3-b]pyrazine-6-carboxamide] |  | IC50 [1]: 0.05 to 0.2 µM
Cc1cnc2c(N)c(C(=O)N[C@H]3CCc4cc(N5C[C@H]6C[C@@H]5CN6)ccc4C3)sc2n1 (single isomer, unassigned) [Example 11-31] | 0.05 to 0.2 | 
CO[C@H]1CN(c2cc(F)c3c(c2C#N)CC[C@@H](NC(=O)c2sc4nc(C)ccc4c2N)C3)C[C@@H]1N (single isomer, unassigned) [Example 14-24] | 0.2 to 2 | 
Cc1cnc2c(N)c(C(=O)N[C@H]3CCc4c(C#N)c(N5CCNCC5)cc(F)c4C3)sc2n1 (single isomer, unassigned) [Example 14-12] | 0.2 to 2 | 
Cc1nc2sc(C(=O)N[C@H]3CCc4c(C#N)c(N5CCNCC5)cc(F)c4C3)c(N)c2s1 (single isomer, unassigned) [Example 14-14] | 0.001 to 0.05 | 
Cc1cnc2c(N)c(C(=O)N[C@@H]3CCc4c(C#N)c(N5CC6CCC(C5)N6)cc(F)c4C3)sc2n1 (single isomer, unassigned) [Example 14-20] | 0.2 to 2 | 
Cc1cnc2c(N)c(C(=O)N[C@@H]3CCc4cc(N5CCNCC5)ccc4C3)sc2n1 (single isomer, unassigned) [Example 11-20] | 0.2 to 2 | 
[2H]C1([2H])c2c(F)cc(N3CCNCC3)cc2OC[C@@H]1NC(=O)c1sc2nc(C)ccc2c1N (single isomer, unassigned) [Example 33-1] | 0.001 to 0.05 | 

Compound | IC50 [2] [µM] | also measured
O=C(N[C@H]1COc2cc(N3CCNCC3)ccc2C1)c1ccc(NCc2cccc3cn[nH]c23)nc1 [Example 698, 6-{[(1H-indazol-7-yl)methyl]amino}-N-[(3R)-7-(piperazin-1-yl)-3,4-dihydro-2H-1-benzopyran-3-yl]pyridine-3-carboxamide] |  | IC50 [1]: 0.2 to 2 µM
Cc1ccc2c(N)c(C(=O)N[C@H]3COc4cc(N5C[C@@H]6CCNC[C@@H]65)cc(F)c4C3)sc2n1 [Example 665, 3-amino-N-[(3R)-7-[(1R,6S)-3,8-diazabicyclo[4.2.0]octan-8-yl]-5-fluoro-3,4-dihydro-2H-1-benzopyran-3-yl]-6-methylthieno[2,3-b]pyridine-2-carboxamide] |  | IC50 [1]: 0.001 to 0.05 µM
[2H]C1([2H])c2c(F)cc(N3CCNCC3)cc2OC[C@H]1NC(=O)c1sc2nc(C)ccc2c1N (single isomer, unassigned) [Example 33-2] | 0.2 to 2 | 
Cc1cnc2c(N)c(C(=O)N[C@@H]3CCc4cc(N5CCNCC5)c(F)cc4C3)sc2n1 (single isomer, unassigned) [Example 21-11] | 0.2 to 2 | 
Cc1cnc2c(N)c(C(=O)N[C@@H]3CCc4cc(N5C[C@@H]6C[C@H]5CN6)ccc4C3)sc2n1 (single isomer, unassigned) [Example 11-30] | 0.2 to 2 | 
CN[C@@H]1CCN(c2ccc3c(c2)CC[C@H](NC(=O)c2sc4nc(C)cnc4c2N)C3)C1 (single isomer, unassigned) [Example 11-27] | 0.05 to 0.2 | 
Cc1cnc2c(N)c(C(=O)N[C@@H]3CCc4cc(N5C[C@H]6C[C@@H]5CN6)ccc4C3)sc2n1 (single isomer, unassigned) [Example 11-32] | 0.2 to 2 | 
Cc1nc2sc(C(=O)N[C@@H]3CCc4c(C#N)c(N5CCNCC5)cc(F)c4C3)c(N)c2s1 (single isomer, unassigned) [Example 14-13] | 0.2 to 2 | 
CO[C@H]1CN(c2ccc3c(c2)OC[C@H](NC(=O)c2sc4nc(C)sc4c2N)C3)CC1N (stereo partly drawn) [Example 118, 6-amino-N-[(3R)-7-[(3,4S)-3-amino-4-methoxypyrrolidin-1-yl]-3,4-dihydro-2H-1-benzopyran-3-yl]-2-methylthieno[2,3-d][1,3]thiazole-5-carboxamide] | 0.05 to 0.2 | 
CO[C@@H]1CN(c2ccc3c(c2)OC[C@H](NC(=O)c2sc4nc(C)cnc4c2N)C3)C[C@@H]1N [Example 147, 7-amino-N-[(3R)-7-[(3S,4R)-3-amino-4-methoxypyrrolidin-1-yl]-3,4-dihydro-2H-1-benzopyran-3-yl]-3-methylthieno[2,3-b]pyrazine-6-carboxamide] |  | IC50 [1]: 0.05 to 0.2 µM
CN[C@H]1CN(c2ccc3c(c2)OC[C@H](NC(=O)c2sc4nc(C)ccc4c2N)C3)C[C@@H]1CF [Example 662, 3-amino-N-[(3R)-7-[(3S,4R)-3-(fluoromethyl)-4-(methylamino)pyrrolidin-1-yl]-3,4-dihydro-2H-1-benzopyran-3-yl]-6-methylthieno[2,3-b]pyridine-2-carboxamide] |  | IC50 [1]: 0.001 to 0.05 µM
Cc1ccc2c(N)c(C(=O)N[C@H]3COc4cc(N5C[C@H](CF)[C@H](N)C5)ccc4C3)sc2n1 (single isomer, unassigned) [Example 424] | 0.001 to 0.05 | 
Cc1cnc2c(N)c(C(=O)N[C@H]3CCc4cc(N5CCNCC5)c(F)cc4C3)sc2n1 (single isomer, unassigned) [Example 21-12] | 0.001 to 0.05 | 
Cc1ccc2c(N)c(C(=O)N[C@H]3CCc4cc(N5C[C@H](CF)[C@H](N)C5)ccc4C3)sc2n1 [Example 657, 3-amino-N-[(2S)-6-[(3S,4S)-3-amino-4-(fluoromethyl)pyrrolidin-1-yl]-1,2,3,4-tetrahydronaphthalen-2-yl]-6-methylthieno[2,3-b]pyridine-2-carboxamide] |  | IC50 [1]: 0.05 to 0.2 µM
Cc1ccc2c(N)c(C(=O)N[C@@H]3CCc4c(C#N)c(N5CCNCC5)cc(F)c4C3)sc2n1 (single isomer, unassigned) [Example 14-9] | 0.2 to 2 | 
Cc1ccc2c(N)c(C(=O)N[C@H]3CCc4nc(N5C[C@@H](N)[C@]6(CCOC6)C5)ccc4C3)sc2n1 [Example 438, 3-amino-N-[(6S)-2-[(5S, 9S)-9-amino-2-oxa-7-azaspiro[4.4]nonan-7-yl]-5,6,7,8-tetrahydroquinolin-6-yl]-6-methylthieno[2,3-b]pyridine-2-carboxamide] | 0.05 to 0.2 | 
